# Square brackets hold non-standard residues; d marks the D form. Ends that are not written are not given here. Peptide text beside a SMILES is read from it. * marks the point of attachment. NH(β-GlcNAc) = CC(=O)N[C@@H]1[C@@H](O)[C@H](O)[C@@H](CO)O[C@H]1N*
# How the values were obtained:
# [1] = tested on: MRPA (P. aeruginosa) CCARM 2180; type: cell-based, Pseudomonas aeruginosa; details: CCARM 2180, 18 h
# In short: (§1)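 Mid-log cultures grown in CAMHB and diluted to 1× 10^6 cfu/ml in PBS were mixed with an equal volume of peptide in CAMHB (80 µM to 0.63 µM twofold dilutions). MIC taken as the mean of three independent experiments.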
# [2] = tested on: MRSA (S. aureus) KCCM 40510; type: cell-based, Staphylococcus aureus; details: KCCM 40510, 18 h
# In short: as §1
# [3] = tested on: MRAB (A. baumannii) ATCC BAA 1605; type: cell-based, Acinetobacter baumannii; details: ATCC BAA 1605, 18 h
# In short: as §1
# [4] = tested on: VRE (E. faecalis) ATCC 51575; type: cell-based, Enterococcus faecalis; details: ATCC 51575, 18 h
# In short: as §1
MIC MRPA (P. aeruginosa) CCARM 2180 [1] [µM],MIC MRSA (S. aureus) KCCM 40510 [2] [µM],MIC MRAB (A. baumannii) ATCC BAA 1605 [3] [µM],MIC VRE (E. faecalis) ATCC 51575 [4] [µM],Compound
2.5,1.25,10,1.25,"CC(C)[C@@H](NC(=O)[C@@H](Cc1c[nH]c2ccccc12)NC(=O)[C@@H](Cc1c[nH]c2ccccc12)NC(=O)[C@H](NC(=O)[C@@H](Cc1c[nH]c2ccccc12)NC(=O)[C@@H](CCCNC(=N)N)NC(=O)[C@@H](CCCNC(=N)N)NC(=O)[C@H](N)CCCNC(=N)N)C(C)C)C(=O)N[C@H](Cc1c[nH]c2ccccc12)C(=O)N[C@H](Cc1c[nH]c2ccccc12)C(N)=O [KSH79, rrrwvwwvww] (H-[dR][dR][dR][dW][dV][dW][dW][dV][dW][dW]-NH2; N-terminus assumed)"
10,1.25,10,1.25,"CC(C)[C@@H](NC(=O)[C@@H](Cc1c[nH]c2ccccc12)NC(=O)[C@@H](CCCNC(=N)N)NC(=O)[C@@H](CCCNC(=N)N)NC(=O)[C@H](N)CCCNC(=N)N)C(=O)N[C@@H](C(=O)N[C@@H](C(=O)N[C@@H](C(=O)N[C@@H](C(=O)N[C@H](Cc1c[nH]c2ccccc12)C(N)=O)C(C)C)C(C)C)C(C)C)C(C)C [KSH86, rrrwvvvvvw] (H-[dR][dR][dR][dW][dV][dV][dV][dV][dV][dW]-NH2; N-terminus assumed)"
5,1.25,5,1.25,"CC(C)[C@@H](NC(=O)[C@@H](Cc1c[nH]c2ccccc12)NC(=O)CNC(=O)[C@@H](CCCNC(=N)N)NC(=O)[C@@H](CCCNC(=N)N)NC(=O)[C@H](N)CCCNC(=N)N)C(=O)N[C@H](Cc1c[nH]c2ccccc12)C(=O)N[C@@H](C(=O)N[C@@H](C(=O)N[C@H](Cc1c[nH]c2ccccc12)C(=O)N[C@H](CCCCN)C(N)=O)C(C)C)C(C)C [KSH90, rrrgwvwvvwk] (H-[dR][dR][dR]G[dW][dV][dW][dV][dV][dW][dK]-NH2; N-terminus assumed)"
5,1.25,10,1.25,"CC(C)[C@@H](NC(=O)[C@@H](Cc1c[nH]c2ccccc12)NC(=O)[C@H](NC(=O)[C@H](NC(=O)[C@@H](Cc1c[nH]c2ccccc12)NC(=O)[C@@H](CCCNC(=N)N)NC(=O)[C@@H](CCCNC(=N)N)NC(=O)[C@H](N)CCCNC(=N)N)C(C)C)C(C)C)C(=O)N[C@H](Cc1c[nH]c2ccccc12)C(=O)N[C@H](Cc1c[nH]c2ccccc12)C(N)=O [KSH83, rrrwvvwvww] (H-[dR][dR][dR][dW][dV][dV][dW][dV][dW][dW]-NH2; N-terminus assumed)"
2.5,1.25,10,1.25,"CC(C)[C@@H](NC(=O)[C@@H](Cc1c[nH]c2ccccc12)NC(=O)[C@H](NC(=O)[C@H](NC(=O)[C@@H](Cc1c[nH]c2ccccc12)NC(=O)[C@@H](CCCNC(=N)N)NC(=O)[C@@H](CCCNC(=N)N)NC(=O)[C@H](N)CCCNC(=N)N)C(C)C)C(C)C)C(=O)N[C@@H](C(=O)N[C@H](Cc1c[nH]c2ccccc12)C(N)=O)C(C)C [KSH84, rrrwvvwvvw] (H-[dR][dR][dR][dW][dV][dV][dW][dV][dV][dW]-NH2; N-terminus assumed)"
>10,>10,2.5,>10,"CC[C@@H](C)[C@@H](NC(=O)[C@@H](Cc1c[nH]c2ccccc12)NC(=O)[C@@H](CCCNC(=N)N)NC(=O)[C@@H](CCCNC(=N)N)NC(=O)[C@H](N)CCCNC(=N)N)C(=O)N[C@H](Cc1c[nH]c2ccccc12)C(=O)N[C@H](C)C(=O)N[C@H](C)C(=O)N[C@H](Cc1c[nH]c2ccccc12)C(=O)N[C@H](CCCCN)C(N)=O [KSH74, rrrwiwaawk] (H-[dR][dR][dR][dW][dI][dW][dA][dA][dW][dK]-NH2; N-terminus assumed)"
20,2.5,2.5,2.5,WVLWVWLRKKR-NH2 [LSH1]
20,2.5,1.25,2.5,WLLWVLWRKKR-NH2 [LSH3]
2.5,1.25,0.63,1.25,"CC[C@@H](C)[C@@H](NC(=O)[C@@H](Cc1c[nH]c2ccccc12)NC(=O)[C@@H](CCCNC(=N)N)NC(=O)[C@@H](CCCNC(=N)N)NC(=O)[C@H](N)CCCNC(=N)N)C(=O)N[C@H](Cc1c[nH]c2ccccc12)C(=O)N[C@@H](C(=O)N[C@H](CC(C)C)C(=O)N[C@H](Cc1c[nH]c2ccccc12)C(=O)N[C@H](CCCCN)C(=O)N[C@H](CC(N)=O)C(N)=O)C(C)C [KSH68, rrrwiwvlwkn] (H-[dR][dR][dR][dW][dI][dW][dV][dL][dW][dK][dN]-NH2; N-terminus assumed)"
2.5,2.5,0.63,2.5,"CC[C@@H](C)[C@@H](NC(=O)[C@@H](Cc1c[nH]c2ccccc12)NC(=O)[C@@H](CCCNC(=N)N)NC(=O)[C@@H](CCCNC(=N)N)NC(=O)[C@H](N)CCCNC(=N)N)C(=O)N[C@H](Cc1c[nH]c2ccccc12)C(=O)N[C@@H](C(=O)N[C@H](CC(C)C)C(=O)N[C@H](Cc1c[nH]c2ccccc12)C(=O)N[C@H](CCCCN)C(=O)N[C@@H](CC(=O)N[C@@H]1O[C@H](CO)[C@@H](O)[C@H](O)[C@H]1NC(C)=O)C(N)=O)C(C)C [KSH48, rrrwiwvlwkN] (H-[dR][dR][dR][dW][dI][dW][dV][dL][dW][dK]D(NH(β-GlcNAc))-NH2; N-terminus assumed)"
2.5,1.25,10,1.25,"CC(C)[C@@H](NC(=O)[C@@H](Cc1c[nH]c2ccccc12)NC(=O)[C@@H](CCCNC(=N)N)NC(=O)[C@@H](CCCNC(=N)N)NC(=O)[C@H](N)CCCNC(=N)N)C(=O)N[C@H](Cc1c[nH]c2ccccc12)C(=O)N[C@H](Cc1c[nH]c2ccccc12)C(=O)N[C@@H](C(=O)N[C@@H](C(=O)N[C@H](Cc1c[nH]c2ccccc12)C(N)=O)C(C)C)C(C)C [KSH80, rrrwvwwvvw] (H-[dR][dR][dR][dW][dV][dW][dW][dV][dV][dW]-NH2; N-terminus assumed)"
10,2.5,2.5,5,"CC(C)[C@@H](NC(=O)[C@H](N)Cc1c[nH]c2ccccc12)C(=O)N[C@@H](C(=O)N[C@H](Cc1c[nH]c2ccccc12)C(=O)N[C@H](C)C(=O)N[C@H](C)C(=O)N[C@H](Cc1c[nH]c2ccccc12)C(=O)N[C@H](CCCNC(=N)N)C(=O)N[C@H](CCCNC(=N)N)C(=O)N[C@H](CCCNC(=N)N)C(N)=O)C(C)C [KSH72, wvvwaawrrr] (H-[dW][dV][dV][dW][dA][dA][dW][dR][dR][dR]-NH2; N-terminus assumed)"
>10,1.25,1.25,0.63,"CC(C)[C@@H](NC(=O)[C@H](N)Cc1c[nH]c2ccccc12)C(=O)N[C@@H](C(=O)N[C@H](Cc1c[nH]c2ccccc12)C(=O)N[C@@H](C(=O)N[C@H](Cc1c[nH]c2ccccc12)C(=O)N[C@H](CCCCN)C(=O)N[C@H](CCCCN)C(=O)N[C@H](CCCCN)C(N)=O)C(C)C)C(C)C [KSH66, wvvwvwkkk] (H-[dW][dV][dV][dW][dV][dW][dK][dK][dK]-NH2; N-terminus assumed)"
2.5,0.63,1.25,0.63,"CC[C@@H](C)[C@@H](NC(=O)[C@@H](Cc1c[nH]c2ccccc12)NC(=O)[C@H](NC(=O)[C@@H](Cc1c[nH]c2ccccc12)NC(=O)[C@@H](CCCNC(=N)N)NC(=O)[C@@H](CCCNC(=N)N)NC(=O)[C@H](N)CCCNC(=N)N)[C@H](C)CC)C(=O)N[C@H](CC(C)C)C(=O)N[C@H](Cc1c[nH]c2ccccc12)C(N)=O [KSH59, rrrwiwilw] (H-[dR][dR][dR][dW][dI][dW][dI][dL][dW]-NH2; N-terminus assumed)"
5,1.25,10,1.25,"CC(C)[C@@H](NC(=O)[C@@H](Cc1c[nH]c2ccccc12)NC(=O)[C@@H](CCCNC(=N)N)NC(=O)[C@@H](CCCNC(=N)N)NC(=O)[C@H](N)CCCNC(=N)N)C(=O)N[C@H](Cc1c[nH]c2ccccc12)C(=O)N[C@@H](C(=O)N[C@@H](C(=O)N[C@H](Cc1c[nH]c2ccccc12)C(=O)N[C@H](Cc1c[nH]c2ccccc12)C(N)=O)C(C)C)C(C)C [KSH81, rrrwvwvvww] (H-[dR][dR][dR][dW][dV][dW][dV][dV][dW][dW]-NH2; N-terminus assumed)"
